# From patent US7763641B2, “Broadspectrum heterocyclic substituted phenyl containing sulfonamide HIV protease inhibitors” (Tibotec Pharmaceuticals Ltd., priority 2001, dated 2010)
# Like-named read-outs stand apart in the source and are kept apart here.
# Columns and labels:
# HIV strain C = test: Cellular anti-HIV assay, clinically isolated mutant strain C; format: cell-based; settings: FR=EC50 (mutant strain)/EC50 (HIV-1 strain LAI)
# Method: (§1) HIV- or mock-infected MT4 cells were incubated for five days in the presence of various concentrations of the inhibitor. […] Cell viability is measured by measuring the concentration of MTT, a yellow, water soluble tetrazolium dye that is converted to a purple, water insoluble formazan in the mitochondria of living cells only. Upon solubilization of the resulting formazan crystals with isopropanol, the absorbance of the solution is monitored at 540 nm. The values correlate directly to the number of living cells remaining in the culture at the completion of the five day incubation. The inhibitory activity of the compound was monitored on the virus-infected cells and was expressed as EC50 and EC90. These values represent the amount of the compound required to protect 50% and 90%, respectively, of the cells from the cytopathogenic effect of the virus. […] The selectivity index (SI) (ratio CC50/EC50) is an indication of the selectivity of the anti-HIV activity of the inhibitor. Wherever results are reported as e.g. pEC50 or pCC50 values, the result is expressed as the negative logarithm of the result expressed as EC50 or CC50 respectively.
# (§2) Because of the increasing emergence of drug resistant HIV strains, the present compounds were tested for their potency against clinically isolated HIV strains harboring several mutations (Table 7 and 8).
# (§3) As a measure of the broad spectrum activity of the present compounds, the fold resistance (FR), defined as FR=EC50 (mutant strain)/EC50 (HIV-1 strain LAI), was determined.
# HIV strain D = test: Cellular anti-HIV assay, clinically isolated mutant strain D; format: cell-based; settings: FR=EC50 (mutant strain)/EC50 (HIV-1 strain LAI)
# Method: as §1, §2, §3
# HIV strain E = test: Cellular anti-HIV assay, clinically isolated mutant strain E; format: cell-based; settings: FR=EC50 (mutant strain)/EC50 (HIV-1 strain LAI)
# Method: as §1, §2, §3
# HIV strain A = test: Cellular anti-HIV assay, clinically isolated mutant strain A; format: cell-based; settings: FR=EC50 (mutant strain)/EC50 (HIV-1 strain LAI)
# Method: as §1, §2, §3
# HIV-1 strain LAI = test: Cellular anti-HIV assay (MTT), wild type strain; format: cell-based; settings: for pEC50: MT4 cells, five days, MTT, HIV-1 strain LAI, Tables 1-6; for WT (pEC50 against wild type HIV-LAI strain): Table 8
# Method: The compounds of the present invention were examined for anti-viral activity in a cellular assay. […] The cellular assay was performed according to the following procedure.
# HIV strain B = test: Cellular anti-HIV assay, clinically isolated mutant strain B; format: cell-based; settings: FR=EC50 (mutant strain)/EC50 (HIV-1 strain LAI)
# Method: as §1, §2, §3
# mock-infected MT4 cells = test: Toxicity on mock-infected cells (MTT)
# Method: as §1, §3
# [1] = pCC50 with mock transfected cells
compound,measurement,setting,value
Cc1cc(-c2nc(-c3ccc(S(=O)(=O)N(CC(C)C)CC(O)C(Cc4ccccc4)NC(=O)OC4COC5OCCC45)cc3)co2)no1 (stereo not drawn) [Compound 46],C (FR towards mutant C),HIV strain C,9.1
same,D (FR towards mutant D),HIV strain D,32
same,E (FR towards mutant E),HIV strain E,9.8
same,A (FR value towards mutant A),HIV strain A,182
same,pEC50,HIV-1 strain LAI,8.4
same,WT (pEC50 against wild type HIV-LAI strain),HIV-1 strain LAI,8.4
same,B (FR towards mutant B),HIV strain B,32
same,Tox (pCC50),mock-infected MT4 cells,<4.49
C=CCNc1nc(-c2ccc(S(=O)(=O)N(CC(C)C)C[C@@H](O)[C@H](Cc3ccccc3)NC(=O)COc3c(C)cc(Br)cc3C)cc2)cs1 [Compound 18],pEC50,HIV-1 strain LAI,4.4
CC(C)CN(CC(O)C(Cc1ccccc1)NC(=O)OC1COC2OCCC12)S(=O)(=O)c1ccc(-c2nc(N)nc(N)n2)cc1 (stereo not drawn) [Compound 58],pEC50,HIV-1 strain LAI,6.0
"Cc1nc(-c2ccc(S(=O)(=O)N(CC(C)C)C[C@@H](O)[C@H](Cc3ccccc3)NC(=O)OCc3cncs3)cc2)co1 [Compound 36, [(1S,2R)-2-hydroxy-3-[N-[4-(2-methyloxazol-4-yl)phenylsulfonyl]-N-(2-methylpropyl)amino]-1-(phenylmethyl)propyl]carbamic acid, (thiazol-5-ylmethyl)ester]",pEC50,HIV-1 strain LAI,6.3
Cc1cccc(C)c1OCC(=O)N[C@@H](Cc1ccccc1)[C@H](O)CN(CC(C)C)S(=O)(=O)c1ccc(-c2csc(N)n2)cc1 [Compound 8],pEC50,HIV-1 strain LAI,5.9
CC(C)CN(CC(O)C(Cc1ccccc1)NC(=O)OC1COC2OCCC12)S(=O)(=O)c1ccc(-c2coc(-c3ccc(Br)cc3)n2)cc1 (stereo not drawn) [Compound 51],C (FR towards mutant C),HIV strain C,4.8
same,D (FR towards mutant D),HIV strain D,12
same,E (FR towards mutant E),HIV strain E,4.8
same,pEC50,HIV-1 strain LAI,7.5
same,WT (pEC50 against wild type HIV-LAI strain),HIV-1 strain LAI,7.5
same,Tox (pCC50),mock-infected MT4 cells; [1],<4.49
CC(C)CN(CC(O)C(Cc1ccccc1)NC(=O)OC1COC2OCCC12)S(=O)(=O)c1ccc(-c2c[nH]c(N)n2)cc1 (stereo not drawn) [Compound 34],pEC50,HIV-1 strain LAI,6.2
CCNc1nc(-c2ccc(S(=O)(=O)N(CC(C)C)C[C@@H](O)[C@H](Cc3ccccc3)NC(=O)COc3c(C)cccc3C)cc2)cs1 [Compound 15],pEC50,HIV-1 strain LAI,5.3
CC(C)CN(CC(O)C(Cc1ccccc1)NC(=O)OC1COC2OCCC12)S(=O)(=O)c1ccc(-c2coc(-c3cccs3)n2)cc1 (stereo not drawn) [Compound 50],C (FR towards mutant C),HIV strain C,4.3
same,D (FR towards mutant D),HIV strain D,13
same,pEC50,HIV-1 strain LAI,8.0
same,WT (pEC50 against wild type HIV-LAI strain),HIV-1 strain LAI,8.0
same,B (FR towards mutant B),HIV strain B,14
same,Tox (pCC50),mock-infected MT4 cells,<4.49
C=CCNc1nc(-c2ccc(S(=O)(=O)N(CC(C)C)C[C@@H](O)[C@H](Cc3ccccc3)NC(=O)COc3c(C)cccc3C)cc2)cs1 [Compound 16],pEC50,HIV-1 strain LAI,5.1
CCNc1nc(-c2ccc(S(=O)(=O)N(CC(C)C)C[C@@H](O)[C@H](Cc3ccccc3)NC(=O)COc3c(C)cc(Br)cc3C)cc2)cs1 [Compound 19],pEC50,HIV-1 strain LAI,4.6
Cc1cc(Br)cc(C)c1OCC(=O)N[C@@H](Cc1ccccc1)[C@H](O)CN(CC(C)C)S(=O)(=O)c1ccc(-c2csc(Nc3ccncc3)n2)cc1 [Compound 21],pEC50,HIV-1 strain LAI,4.7
"Cc1cccc(C)c1OCC(=O)N[C@@H](Cc1ccccc1)[C@H](O)CN(CC(C)C)S(=O)(=O)c1ccc(-c2cc[nH]n2)cc1 [Compound 24, [(1S,2R)-2-hydroxy-3-[N-(2-methylpropyl)-N-(4-pyrazol-3(5)-ylphenylsulfonyl)-amino]-1-(phenylmethyl)propyl]-(2,6-dimethylphenoxy) acetamide]",E (FR towards mutant E),HIV strain E,3.1
same,A (FR value towards mutant A),HIV strain A,1.1
same,pEC50,HIV-1 strain LAI,7.1
same,WT (pEC50 against wild type HIV-LAI strain),HIV-1 strain LAI,7.1
same,Tox (pCC50),mock-infected MT4 cells; [1],4.2
CC(C)CN(CC(O)C(Cc1ccccc1)NC(=O)OC1COC2OCCC12)S(=O)(=O)c1ccc(-c2coc(CCC(=O)O)n2)cc1 (stereo not drawn) [Compound 41],pEC50,HIV-1 strain LAI,7.2
CC(C)CN(CC(O)C(Cc1ccccc1)NC(=O)OC1COC2OCCC12)S(=O)(=O)c1ccc(-c2cn3ccsc3n2)cc1 (stereo not drawn) [Compound 53],pEC50,HIV-1 strain LAI,7.6
CCn1nccc1-c1ccc(S(=O)(=O)N(CC(C)C)C[C@@H](O)[C@H](Cc2ccccc2)NC(=O)COc2c(C)cccc2C)cc1 [Compound 29],pEC50,HIV-1 strain LAI,5.2
CC(C)CN(CC(O)C(Cc1ccccc1)NC(=O)OC1COC2OCCC12)S(=O)(=O)c1ccc(-c2coc(-c3ccc(I)cc3)n2)cc1 (stereo not drawn) [Compound 47],pEC50,HIV-1 strain LAI,7.1
Cc1cc(Br)cc(C)c1OCC(=O)N[C@@H](Cc1ccccc1)[C@H](O)CN(CC(C)C)S(=O)(=O)c1ccc(-c2csc(N)n2)cc1 [Compound 13],pEC50,HIV-1 strain LAI,5.3
Cc1cccc(C)c1OCC(=O)N[C@@H](Cc1ccccc1)[C@H](O)CN(CC(C)C)S(=O)(=O)c1ccc(-c2csc(Nc3ccncc3)n2)cc1 [Compound 11],pEC50,HIV-1 strain LAI,5.4
CC(C)CN(CC(O)C(Cc1ccccc1)NC(=O)OC1COC2OCCC12)S(=O)(=O)c1ccc(-c2coc(-c3ccc4c(c3)OCO4)n2)cc1 (stereo not drawn) [Compound 45],pEC50,HIV-1 strain LAI,7.8
Cc1cccc(C)c1OCC(=O)N[C@@H](Cc1ccccc1)[C@H](O)CN(CC(C)C)S(=O)(=O)c1ccc(-c2ccnn2C(C)(C)C)cc1 [Compound 27],pEC50,HIV-1 strain LAI,5.2
CCCn1nccc1-c1ccc(S(=O)(=O)N(CC(C)C)C[C@@H](O)[C@H](Cc2ccccc2)NC(=O)COc2c(C)cccc2C)cc1 [Compound 30],pEC50,HIV-1 strain LAI,5.0
"CC(C)CN(C[C@@H](O)[C@H](Cc1ccccc1)NC(=O)O[C@H]1CO[C@H]2OCC[C@H]21)S(=O)(=O)c1ccc(-c2cnccn2)cc1 [Compound 56, [(1S,2R)-2-hydroxy-3-[N-(2-methylpropyl)-N-[4-(pyrazin-2-yl)-phenylsulfonyl]amino]-1-(phenylmethyl)propyl]carbamic acid, [(3R,3aS,6aR)-hexahydrofuro[2,3-b]furan-3-yl]ester]",pEC50,HIV-1 strain LAI,8.1
CC(C)CN(CC(O)C(Cc1ccccc1)NC(=O)OC1COC2OCCC12)S(=O)(=O)c1ccc(-c2coc(N)n2)cc1 (stereo not drawn) [Compound 37],pEC50,HIV-1 strain LAI,8.4
Cc1cccc(C)c1OCC(=O)N[C@@H](Cc1ccccc1)[C@H](O)CN(CC(C)C)S(=O)(=O)c1ccc(-c2ccnn2Cc2ccccc2)cc1 [Compound 28],pEC50,HIV-1 strain LAI,5.2
CC(C)CN(CC(O)C(Cc1ccccc1)NC(=O)OC1COC2OCCC12)S(=O)(=O)c1ccc(-c2csc(Nc3ccncc3)n2)cc1 (stereo not drawn) [Compound 5],C (FR towards mutant C),HIV strain C,3.0
same,E (FR towards mutant E),HIV strain E,13.5
same,A (FR value towards mutant A),HIV strain A,22.3
same,pEC50,HIV-1 strain LAI,7.6
same,WT (pEC50 against wild type HIV-LAI strain),HIV-1 strain LAI,7.6
same,B (FR towards mutant B),HIV strain B,6.3
same,Tox (pCC50),mock-infected MT4 cells; [1],4.95
CC(C)CN(C[C@@H](O)[C@H](Cc1ccccc1)NC(=O)OCc1cncs1)S(=O)(=O)c1ccc(-c2csc(Nc3ccncc3)n2)cc1 [Compound 10],pEC50,HIV-1 strain LAI,5.5
CC(=O)Nc1nc(-c2ccc(S(=O)(=O)N(CC(C)C)C[C@@H](O)[C@H](Cc3ccccc3)NC(=O)COc3c(C)cccc3C)cc2)cs1 [Compound 12],pEC50,HIV-1 strain LAI,5.3
CC(C)Cc1nc(-c2ccc(S(=O)(=O)N(CC(C)C)CC(O)C(Cc3ccccc3)NC(=O)OC3COC4OCCC34)cc2)co1 (stereo not drawn) [Compound 49],C (FR towards mutant C),HIV strain C,4.4
same,E (FR towards mutant E),HIV strain E,10
same,pEC50,HIV-1 strain LAI,8.1
same,WT (pEC50 against wild type HIV-LAI strain),HIV-1 strain LAI,8.1
same,B (FR towards mutant B),HIV strain B,21
same,Tox (pCC50),mock-infected MT4 cells,<4.49
Cc1nc(-c2ccc(S(=O)(=O)N(CC(C)C)CC(O)C(Cc3ccccc3)NC(=O)OC3COC4OCCC34)cc2)c[nH]1 (stereo not drawn) [Compound 31],pEC50,HIV-1 strain LAI,7.6
Cc1sc(N)nc1-c1ccc(S(=O)(=O)N(CC(C)C)CC(O)C(Cc2ccccc2)NC(=O)OC2COC3OCCC23)cc1 (stereo not drawn) [Compound 7],pEC50,HIV-1 strain LAI,7.3
CC(=O)Nc1nc(-c2ccc(S(=O)(=O)N(CC(C)C)C[C@@H](O)[C@H](Cc3ccccc3)NC(=O)COc3c(C)cc(Br)cc3C)cc2)cs1 [Compound 17],pEC50,HIV-1 strain LAI,4.2
CNc1nc(-c2ccc(S(=O)(=O)N(CC(C)C)C[C@@H](O)[C@H](Cc3ccccc3)NC(=O)COc3c(C)cccc3C)cc2)cs1 [Compound 9],pEC50,HIV-1 strain LAI,5.9
Cc1cccc(C)c1OCC(=O)N[C@@H](Cc1ccccc1)[C@H](O)CN(CC(C)C)S(=O)(=O)c1ccc(-c2ccnn2C)cc1 [Compound 25],pEC50,HIV-1 strain LAI,5.9
CC(C)CN(CC(O)C(Cc1ccccc1)NC(=O)OC1COC2OCCC12)S(=O)(=O)c1ccc(-c2coc(-c3ccc(C#N)cc3)n2)cc1 (stereo not drawn) [Compound 52],C (FR towards mutant C),HIV strain C,6.2
same,D (FR towards mutant D),HIV strain D,16
same,E (FR towards mutant E),HIV strain E,11
same,pEC50,HIV-1 strain LAI,8.1
same,WT (pEC50 against wild type HIV-LAI strain),HIV-1 strain LAI,8.1
same,B (FR towards mutant B),HIV strain B,17
same,Tox (pCC50),mock-infected MT4 cells,<4.49
CC(C)CN(CC(O)C(Cc1ccccc1)NC(=O)OC1COC2OCCC12)S(=O)(=O)c1ccc(-c2coc(COCc3ccccc3)n2)cc1 (stereo not drawn) [Compound 39],E (FR towards mutant E),HIV strain E,52
same,A (FR value towards mutant A),HIV strain A,36
same,pEC50,HIV-1 strain LAI,8.1
same,WT (pEC50 against wild type HIV-LAI strain),HIV-1 strain LAI,8.1
same,Tox (pCC50),mock-infected MT4 cells,<4.0
